In patent US20210155671A1 (priority 2019, published 2021):

Experiments:
[1] = system: Daudi; type: cell-based
[2] = system: HBL-1; type: cell-based
[3] = system: SU-DHL-4; type: cell-based
[4] = system: Raji; type: cell-based
[5] = system: Burkitt's lymphoma (ST-486) cells; type: cell-based; conditions: 72 hours
Procedure: The cytotoxicity of Molecule 001 in combination with lenalidomide was also tested in Burkitt's lymphoma (ST-486) cells. The cells were incubated with Molecule 001 only, lenalidomide only, or a combination of Molecule 001 and lenalidomide. Cell viability was measured 72 hours after treatment using the Promega® Cell TiterGlo® assay (FIG. 19E).

[6] = system: lymphoma (Daudi) cells; type: cell-based
Procedure: The cytotoxicity of Molecule 001 in combination with lenalidomide was also tested in vitro, in lymphoma (Daudi) cells. […] Following this, Molecule 001 was added and viability was measured after an additional 3 days, using the Promega® Cell Titer-Gb® assay (FIG. 19C).

[7] = target: CD20 (Homo sapiens, UniProt P11836); conditions: at 37° C.; cited from earlier work
Chain of CD20 (P11836 whole entry): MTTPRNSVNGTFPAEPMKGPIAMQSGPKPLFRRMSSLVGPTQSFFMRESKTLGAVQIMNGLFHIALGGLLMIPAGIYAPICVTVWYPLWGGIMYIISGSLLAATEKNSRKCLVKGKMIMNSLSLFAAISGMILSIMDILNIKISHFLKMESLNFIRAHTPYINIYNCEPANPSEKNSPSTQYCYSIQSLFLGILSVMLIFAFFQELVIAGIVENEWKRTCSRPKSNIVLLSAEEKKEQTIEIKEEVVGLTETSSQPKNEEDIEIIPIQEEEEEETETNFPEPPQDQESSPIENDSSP

## Cn1c(CCCC(=O)O)nc2cc(N(CCCl)CCCl)ccc21 [Bendamustine]
[1]
  In vitro responses to Molecule 001 in combination with chemotherapy: Synergistic
[2]
  In vitro responses to Molecule 001 in combination with chemotherapy: Synergistic
[3]
  In vitro responses to Molecule 001 in combination with chemotherapy: Synergistic

## Nc1ccn([C@@H]2O[C@H](CO)[C@@H](O)C2(F)F)c(=O)n1 [Gemcitabine]
[4]
  In vitro responses to Molecule 001 in combination with chemotherapy: Synergistic

## Nc1cccc2c1CN(C1CCC(=O)NC1=O)C2=O (stereo not shown) [lenalidomide]
[5]
  effect of lenalidomide on the activity of Molecule 001: no effect on the activity of Molecule 001
[5]; concentrations used in this assay
  effect of lenalidomide on cell viability: little effect on cell viability
[6]; Daudi cells pre-treated with lenalidomide for 24 hours, then Molecule 001, viability after additional 3 days
  toxicity of Molecule 001 on cells pre-treated with lenalidomide (isobologram): synergistic toxicity
[6]; versus either agent alone
  potency of the combination of Molecule 001 and LEN against lymphoma cells: significantly greater potency against lymphoma cells than either agent alone

## N.N.[Cl][Pt][Cl] [Cisplatin]
[1]
  In vitro responses to Molecule 001 in combination with chemotherapy: Mixed
[4]
  In vitro responses to Molecule 001 in combination with chemotherapy: Synergistic
[3]
  In vitro responses to Molecule 001 in combination with chemotherapy: Mixed

## rituximab
[7]
  time to maximal cellular internalization: 16 to 18 h

## CC[C@]1(O)C[C@H]2CN(CCc3c([nH]c4ccccc34)[C@@](C(=O)OC)(c3cc4c(cc3OC)N(C=O)[C@H]3[C@@](O)(C(=O)OC)[C@H](OC(C)=O)[C@]5(CC)C=CCN6CC[C@]43[C@@H]65)C2)C1 [Vincristine]
[4]
  In vitro responses to Molecule 001 in combination with chemotherapy: Synergistic

## COc1cccc2c1C(=O)c1c(O)c3c(c(O)c1C2=O)C[C@@](O)(C(=O)CO)C[C@@H]3O[C@H]1C[C@H](N)[C@H](O)[C@H](C)O1 [Doxorubicin]
[1]
  In vitro responses to Molecule 001 in combination with chemotherapy: Mixed
[4]
  In vitro responses to Molecule 001 in combination with chemotherapy: Synergistic
[2]
  In vitro responses to Molecule 001 in combination with chemotherapy: Synergistic
